Measurements published in ChEMBL document CHEMBL1201862, “PubChem BioAssay data set” (2004).
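Method: 48-hour compound exposure of cells in 96-well plates, five concentrations, linear interpolation of endpoints. GI50 is the concentration that inhibits growth by half.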 Calls of active or inactive are those of the source. No stated cut-off is given here; in the data, active = GI50 up to about 1.1 µM and inactive = higher.

Key:
Test in all cases: NCI anticancer screen, dose series, 48 h
[1] = test system: MDA-N
[2] = test system: IGROV-1
[3] = test system: Malme-3M
[4] = test system: OVCAR-5
[5] = test system: NCI/ADR-RES
[6] = test system: SR
[7] = test system: COLO 205
[8] = test system: NCI-H23
[9] = test system: MOLT-4
[10] = test system: SF-295
[11] = test system: ACHN
[12] = test system: BT-549
[13] = test system: HOP-92
[14] = test system: Hs-578T
[15] = test system: OVCAR-4
[16] = test system: HL-60
[17] = test system: K562
[18] = test system: LOX IMVI
[19] = test system: HCC 2998
[20] = test system: CCRF-CEM

Row | Compound | GI50 [1] | GI50 [2] | GI50 [3] | GI50 [4] | GI50 [5] | GI50 [6] | GI50 [7] | GI50 [8] | GI50 [9] | GI50 [10] | GI50 [11] | GI50 [12] | GI50 [13] | GI50 [14] | GI50 [15] | GI50 [16] | GI50 [17] | GI50 [18] | GI50 [19] | GI50 [20]
1 | CC(CCCC1SCC2NC(=O)NC21)C(=O)O (centres undefined) | > 100 µM (inactive) | > 100 µM (inactive) | > 100 µM (inactive) | > 100 µM (inactive) | > 100 µM (inactive) | > 100 µM (inactive) | > 100 µM (inactive) | > 100 µM (inactive) | > 100 µM (inactive) | > 100 µM (inactive) | > 100 µM (inactive) | > 100 µM (inactive) | > 100 µM (inactive) | > 100 µM (inactive) | > 100 µM (inactive) | > 100 µM (inactive) | > 100 µM (inactive) | > 100 µM (inactive) |  | 
2 | CCOC(=O)Nc1nn[nH]c1Cl | > 100 µM (inactive) | > 100 µM (inactive) | > 100 µM (inactive) | > 100 µM (inactive) | > 100 µM (inactive) |  | > 100 µM (inactive) | > 100 µM (inactive) | > 100 µM (inactive) |  |  | > 100 µM (inactive) |  | > 100 µM (inactive) | > 100 µM (inactive) |  | > 100 µM (inactive) | > 100 µM (inactive) | > 100 µM (inactive) | 
3 | CCOc1snc(C(Cl)(Cl)Cl)c1Cl | 21.9 µM (inactive) | 31 µM (inactive) | 22.2 µM (inactive) | > 100 µM (inactive) |  | 14 µM (inactive) | 18.8 µM (inactive) | 12 µM (inactive) | 13.3 µM (inactive) | 21.9 µM (inactive) | 7.85 µM (inactive) | 10.7 µM (inactive) |  | 18.9 µM (inactive) | 27.1 µM (inactive) | 13.2 µM (inactive) | 9.33 µM (inactive) | 16.9 µM (inactive) | 22.4 µM (inactive) | 17.3 µM (inactive)
4 | Cc1ccccc1NC(=O)C(=O)Cc1cnc2ccccc2n1 | > 100 µM (inactive) | > 100 µM (inactive) | > 100 µM (inactive) | > 100 µM (inactive) | > 100 µM (inactive) |  | > 100 µM (inactive) | > 100 µM (inactive) | > 100 µM (inactive) | > 100 µM (inactive) | > 100 µM (inactive) | > 100 µM (inactive) | > 100 µM (inactive) | > 100 µM (inactive) | > 100 µM (inactive) | > 100 µM (inactive) | > 100 µM (inactive) | > 100 µM (inactive) | > 100 µM (inactive) | 69.8 µM (inactive)
5 | C=C(C1=CC(=O)C(C)(C)O1)[C@@H]1CC=C([C@@H]2CC[C@H]3[C@@]2(C)CC[C@H]2C(C)(C)C(=O)[C@H](O)C[C@]32C)[C@H](O)O1 | 1.67 µM (inactive) | 2.18 µM (inactive) | 2.35 µM (inactive) | 13.7 µM (inactive) | 3.98 µM (inactive) |  | 1.8 µM (inactive) | 3.85 µM (inactive) | 0.982 µM (active) | 8.04 µM (inactive) | 1.66 µM (inactive) | 5.38 µM (inactive) | 1.98 µM (inactive) | 3.27 µM (inactive) | 3.11 µM (inactive) | 2.24 µM (inactive) | 1.71 µM (inactive) | 1.81 µM (inactive) | 2.89 µM (inactive) | 0.729 µM (active)
6 | CCN(CC)CCCC(C)NC(=O)c1cc(-c2nccn2C)nc2ccc(C)cc12 (centres undefined) | > 100 µM (inactive) | > 100 µM (inactive) | > 100 µM (inactive) | > 100 µM (inactive) | > 100 µM (inactive) | < 0.01 µM (active) | > 100 µM (inactive) | > 100 µM (inactive) | > 10 µM (inactive) |  | > 100 µM (inactive) | > 100 µM (inactive) | > 100 µM (inactive) |  | 67.5 µM (inactive) | > 100 µM (inactive) |  | > 100 µM (inactive) | > 100 µM (inactive) | 
7 | Cc1ccc2ccc(O)cc2c1 | 20.1 µM (inactive) | 20.7 µM (inactive) | 48.2 µM (inactive) | 55.8 µM (inactive) | 24.8 µM (inactive) |  | > 100 µM (inactive) | 37.8 µM (inactive) | 22.6 µM (inactive) | 39.4 µM (inactive) | 53.6 µM (inactive) | 26.7 µM (inactive) | 24.9 µM (inactive) | 37.9 µM (inactive) | 20.9 µM (inactive) | 18.5 µM (inactive) | 20.2 µM (inactive) | 30.2 µM (inactive) | 18.2 µM (inactive) | 23.9 µM (inactive)
8 | COc1ccc(-n2c3c(c4cc(O)ccc42)Cc2ccccc2C3=O)cc1 | 65.6 µM (inactive) | 29.7 µM (inactive) | > 100 µM (inactive) |  | 73.8 µM (inactive) | 41.9 µM (inactive) | 11.7 µM (inactive) | > 100 µM (inactive) | 11.5 µM (inactive) | 16.5 µM (inactive) |  | > 100 µM (inactive) |  | > 100 µM (inactive) | 7.83 µM (inactive) | > 100 µM (inactive) | 31.3 µM (inactive) | 35.9 µM (inactive) |  | 4.9 µM (inactive)
